Data on 17 compounds can be found in article PMC5743200 (Journal of medicinal chemistry, 2017).

“Also recorded” adds a separate entry of the source. A value given as a limit tells only on which side of the number the result lay.

For one assay, the system named is HK853 D411N. Put plainly: Thermal shift assay. The note with it: D411N alone Tm 67 °C; inhibitor 1 mM; no significant change.
For the next assay, the target named is HSP90α (Homo sapiens, UniProt P07900). Put plainly: HSP90 inhibition assay, fluorescence polarization Hsp90α kit. In kind it is binding. A general note: Polarisation of emitted light reports the rotation of a fluorescent probe.
The next assay concerns WT HK853. Put plainly: Thermal shift assay. To be noted: WT HK853 alone Tm = 70 °C; inhibitor 1 mM.
For another assay, the target named is HK853 (Thermotoga maritima, UniProt Q9WZV7). Briefly: Inhibition of HK853 activity, BODIPY-ATPγS competition, in-gel fluorescence. Type of assay: biochemical. The note with it: for IC50 values (μM) (95% confidence interval), n = 2: HK853 inhibitory activity, value (95% confidence interval).

For the compound `CCCN(CCC)c1[nH]cnc2ncnc1-2` [Compound 1, 6-N,N-dipropyl adenine], the “change in the Tm value of HK853 D411N” value in the assay with HK853 D411N was ≤ 2 °C.
A word on the IC50: it is the midpoint of a concentration-inhibition curve. On to `c1ccc(CCNc2ncnc3[nH]cnc23)cc1` [Compound 3, 6-N-phenylethyladenine], for which, on HSP90α, the IC50 was ≤ 1.25 mM.
For the compound `CC1CC(Nc2ncnc3nc[nH]c23)CC(C)(C)C1` (stereo not drawn) [Compound 4, 6-N,N-(3,3,5-trimethylcyclohexyl) adenine], the IC50 against HSP90α is ≤ 1.25 mM.
In the case of `Nc1ncnc2c1ncn2[C@@H]1O[C@H](COP(=O)(O)OP(=O)(O)O)[C@@H](O)[C@H]1O` [Compound 6, ADP, reference compound], in the assay on HK853 D411N, the “change in the Tm value of HK853 D411N” value was ≤ 2 °C. The “Tm of WT HK853 in the presence of compound” value in the assay on WT HK853 was determined as 80 °C.
Turning to `OC[C@H]1O[C@@H](n2cnc3c(NCCc4ccccc4)ncnc32)[C@H](O)[C@@H]1O` [Compound 10, 6-N-phenylethyladenosine], the “HK853 inhibition, result in words” value on HK853 is on record as “negligible activity”. Moreover, on HK853 (HK853, riboside 10 versus lead 3), the fold decreased potency was > 20 fold.
On to `Nc1nc(N)c2nc[nH]c2n1` [Compound 13, 2-aminoadenine], for which, on HK853, the “HK853 inhibition, result in words” value is on record as “negligible activity”.
Still for that read-out and setting: as for `Nc1nc(N)c2ncn([C@@H]3O[C@H](CO)[C@@H](O)[C@H]3O)c2n1` [Compound 14, aminoadenosine], the entry is “negligible activity”; as for `Nc1nc(Cl)c2ncn([C@@H]3O[C@H](CO)[C@@H](O)[C@H]3O)c2n1` [Compound 20, 2-amino,6-chloropurine ribose], “negligible activity”; as for `Nc1nc2ncnc-2c[nH]1` [Compound 21, 2-aminopurine], “low affinity; also recorded: negligible activity”.
For the compound `c1ccc(Nc2ncnc3[nH]cnc23)cc1` [Compound 22, 6-anilinopurine], on HK853 (HK853), the “fold superior potency compared to 3” value was ~20 fold and the “fold superior potency compared to 9” value is on record as ~60 fold.
On to `OC[C@H]1O[C@@H](n2cnc3c(Nc4ccccc4)ncnc32)[C@H](O)[C@@H]1O` [Compound 23, 6-anilinopurine ribose], for which, at HK853, the “HK853 inhibition, result in words” value is reported as “failed to inhibit” and the “IC50 values (μM) (95% confidence interval), n = 2” value is reported as “No Inhibition”.
`Cn1cnc2ncnc(N)c21` [Compound 26, 7-N-methyladenine]: on HK853, the “HK853 inhibition, result in words” value is recorded as “failed to show any activity” and the “IC50 values (μM) (95% confidence interval), n = 2” value is “No Inhibition”.
For `Cn1cnc2nc(Cl)nc(N)c21` [Compound 28, 2-chloro,7-N-methyladenine] the same measures were “inactive” and “No Inhibition”.
As for `Nc1ncnc2[nH]nnc12` [Compound 30, 8-azadenine], at HK853, the “HK853 inhibition, result in words” value is reported as “minimal activity”.
`Nc1nc2[nH]cnc2c(=O)[nH]1` [Guanine, reference compound]: the “HK853 inhibition, result in words” value at HK853 is recorded as “neither guanine or guanosine inhibited HK853”.
As to `Nc1nc2c(ncn2[C@@H]2O[C@H](CO)[C@@H](O)[C@H]2O)c(=O)[nH]1` [Guanosine, reference compound], at HK853, the “HK853 inhibition, result in words” value is listed as “neither guanine or guanosine inhibited HK853” and the “IC50 values (μM) (95% confidence interval), n = 2” value is “No Inhibition”.
For the compound `O=c1[nH]cnc2c1ncn2[C@@H]1O[C@H](CO)[C@@H](O)[C@H]1O` [Inosine, reference compound], the “IC50 values (μM) (95% confidence interval), n = 2” value on HK853 was “No Inhibition”.
